Test results taken from patent US20170342021A1, “RAS-INHIBITING INDENYL ACETAMIDE COMPOUNDS, COMPOSITIONS, AND USES” (ADT Pharmaceuticals, Inc., priority 2014, published 2017).

Key:
[1] = test system: HCT-116; test: CellTiter-Glo growth inhibition, HCT-116; assay type: cell-based, human; details: ten-fold serial dilutions, ras-mutant line
Description: (§1) This example illustrates cell growth assays that can be employed in the present invention. […] Normal rat kidney (NRK) and Ki-Ras transformed NRK cells (K-NRK) are obtained from ATCC, and were cultured according to supplier recommendations. CellTiter-Glo ATP cell growth assay reagents are obtained from Promega and used according to the manufacturer's protocol. Inhibitors of EGFR, Raf, and MEK are obtained from Selleck Chemicals. Cells are plated at a density of 5,000 cells per well in 96-well microplates or 1,250 cells per well in 384-well plates, and allowed to attach for at least 4 h. Test compounds are dissolved in dimethyl sulfoxide (DMSO), and this working stock is further diluted in growth medium for addition to cell cultures. Serial dilutions of the test compound are prepared in growth medium containing an equal amount of DMSO not exceeding 0.2% final concentration. Each compound concentration is tested in at least 3 separate samples per cell line. At the end of a 3-day treatment period, growth inhibition is analyzed using a bioluminescent assay of ATP concentration (Promega CellTiter-Glo) according to the manufacturer's protocol. The resulting luminescence is measured using the luminescence cartridge of the Molecular Devices Spectramax Paradigm microplate reader. The relative growth inhibition for each sample is determined by comparison with the values obtained for vehicle treated control samples. Growth inhibition values are plotted with the GraphPad Prism5 software using the 4-parameter logistic fit to obtain IC50 values, which corresponds to the growth inhibitory potency of the compound.
(§2) Cells were seeded in 384-well plates and allowed to attach. Ten-fold serial dilutions of compounds were tested. Each compound concentration was tested in at least 3 separate samples per cell line.

[2] = test system: DLD-1; test: CellTiter-Glo growth inhibition, DLD-1; assay type: cell-based, human; details: ten-fold serial dilutions, ras-mutant line
Description: as §1, §2

[3] = test system: SW-480; test: CellTiter-Glo growth inhibition, SW-480; assay type: cell-based, human; details: ten-fold serial dilutions, ras-mutant line
Description: as §1, §2

[4] = test system: Caco-2; test: CellTiter-Glo growth inhibition, Caco-2; assay type: cell-based, human; details: ten-fold serial dilutions, wild type Ras line
Description: as §1, §2

[5] = test system: HT-29; test: CellTiter-Glo growth inhibition, HT-29; assay type: cell-based, human; details: ten-fold serial dilutions, wild type Ras line
Description: as §1, §2

[6] = test system: COLO-205; test: CellTiter-Glo growth inhibition, COLO-205; assay type: cell-based, human; details: ten-fold serial dilutions, wild type Ras line, lowest level of active Ras
Description: as §1, §2

[7] = test system: cells expressing oncogenic H-Ras; details: literature value, NIH probe report, cited from earlier work
[8] = test system: HCT-116 colon tumor cells expressing mutant Ras, compared to HT-29 expressing wild-type Ras; test: Ras selectivity by growth inhibition, HT-29 versus HCT-116; assay type: cell-based, human; details: ratio of IC50 in HT-29 to IC50 in HCT-116; 5000 cells/well, 96-well plates, Cell Titer Glo
Description: (§3) This example illustrates cell growth assays that can be employed in the present invention. Cells can include A-549, HT-29, MDA-MB-231, Colo-205, Caco2, HCT-116, SW-480, and DLD-1 human cancer cells obtained from the American Type Culture Collection (ATCC). Human tumor cells are cultured using standard methods in RPMI-1640 growth medium supplemented with 5% fetal bovine serum (FBS). Normal rat kidney (NRK) and Ki-Ras transformed NRK cells (K-NRK) are obtained from ATCC, and were cultured according to supplier recommendations. CellTiter-Glo ATP cell growth assay reagents are obtained from Promega and used according to the manufacturer's protocol. Inhibitors of EGFR, Raf, and MEK are obtained from Selleck Chemicals. Cells are plated at a density of 5,000 cells per well in 96-well microplates or 1,250 cells per well in 384-well plates, and allowed to attach for at least 4 h. Test compounds are dissolved in dimethyl sulfoxide (DMSO), and this working stock is further diluted in growth medium for addition to cell cultures. Serial dilutions of the test compound are prepared in growth medium containing an equal amount of DMSO not exceeding 0.2% final concentration. Each compound concentration is tested in at least 3 separate samples per cell line. At the end of a 3-day treatment period, growth inhibition is analyzed using a bioluminescent assay of ATP concentration (Promega CellTiter-Glo) according to the manufacturer's protocol. The resulting luminescence is measured using the luminescence cartridge of the Molecular Devices Spectramax Paradigm microplate reader. The relative growth inhibition for each sample is determined by comparison with the values obtained for vehicle treated control samples. Growth inhibition values are plotted with the GraphPad Prism5 software using the 4-parameter logistic fit to obtain IC50 values, which corresponds to the growth inhibitory potency of the compound.
(§4) This example illustrates the use of well-established human colon tumor cell lines with widely divergent Ras activation status to determine selectivity values for exemplary compounds of the present invention. Cell lines thus employed in this example were HCT-116, a highly Ras-driven line expressing mutant Ras, SW-480, another strongly Ras-driven line expressing mutant Ras, and HT-29, a non-Ras-driven line expressing wild-type, non-mutated Ras. Cells were plated at 5000 cells/well in 96-well plates, and viable cell numbers were measured using the Cell Titer Glo ATP luminescence assay (Promega). FIGS. 5A-5F show results of these studies for exemplary compounds 054, 058, 057, 055, and 056, respectively. The calculated HT-29/HCT-116 selectivity values for the first five of the aforementioned compounds were 14, 13, 18, 11 and 5, respectively. The calculated HT-29/SW-480 selectivity values for the aforementioned compounds were 16, 16, 19, 13 and 5, respectively.

[9] = test system: SW-480 colon tumor cells expressing mutant Ras, compared to HT-29 expressing wild-type Ras; test: Ras selectivity by growth inhibition, HT-29 versus SW-480; assay type: cell-based, human; details: ratio of IC50 in HT-29 to IC50 in SW-480; 5000 cells/well, 96-well plates, Cell Titer Glo
Description: as §3, §4

[10] = test system: panel of human colorectal cancer cell lines; test: Growth inhibition by known Ras pathway inhibitors across the cell line panel; assay type: cell-based; details: comparison of potency across cell lines with differing Ras activation
Description: This example illustrates cell growth assays that can be employed in the present invention. Cells can include A-549, HT-29, MDA-MB-231, Colo-205, Caco2, HCT-116, SW-480, and DLD-1 human cancer cells obtained from the American Type Culture Collection (ATCC). Human tumor cells are cultured using standard methods in RPMI-1640 growth medium supplemented with 5% fetal bovine serum (FBS). Normal rat kidney (NRK) and Ki-Ras transformed NRK cells (K-NRK) are obtained from ATCC, and were cultured according to supplier recommendations. CellTiter-Glo ATP cell growth assay reagents are obtained from Promega and used according to the manufacturer's protocol. […] At the end of a 3-day treatment period, growth inhibition is analyzed using a bioluminescent assay of ATP concentration (Promega CellTiter-Glo) according to the manufacturer's protocol. The resulting luminescence is measured using the luminescence cartridge of the Molecular Devices Spectramax Paradigm microplate reader. The relative growth inhibition for each sample is determined by comparison with the values obtained for vehicle treated control samples. […]
This example illustrates the levels of Ras activation in different colorectal cancer cells. […] The ratio of the intensity of the Ras to GAPDH bands was expressed as relative Ras activation, which is presented above each lane in FIG. 4. […]

[11] = Homo sapiens, HCT-116, 384-well plates
[12] = Homo sapiens, DLD-1, 384-well plates
[13] = Homo sapiens, SW480, 384-well plates
[14] = Homo sapiens, Caco-2, 384-well plates
[15] = Homo sapiens, HT-29, 384-well plates
[16] = Homo sapiens, COLO 205, 384-well plates

IC50 [1, 11]	IC50 [2, 12]	IC50 [3, 13]	IC50 [4, 14]	IC50 [5, 15]	IC50 [6, 16]	Compound	HT-29/HCT-116 selectivity value [8]	HT-29/SW-480 selectivity value [9]	further results
4.11 µM	≥ 20.4 µM	> 20 µM	> 20 µM	0.854 µM	0.0046 µM	Cn1cnc2c(F)c(Nc3ccc(Br)cc3Cl)c(C(=O)NOCCO)cc21 [Selumetinib]			
						Cc1onc(C(=O)N2CCN(C(c3ccc(Cl)cc3)c3ccc(Cl)cc3)CC2)c1[N+](=O)[O-] [ML210]			selectivity versus cells lacking oncogenic Ras [7]: 4 fold; IC50 ([7]; read-out: IC50, growth of cells expressing mutant Ras): 0.071 µM
						COc1cc(/C=C2/C(C)=C(CC(=O)Nc3ccc(Br)cc3)c3cc(F)ccc32)cc(OC)c1O [Compound 057, (Z)—N-(4-bromophenyl)-2-(5-fluoro-1-(4-hydroxy-3,5-dimethoxybenzylidene)-2-methyl-1H-inden-3-yl)acetamide]	18	19	
						COc1cc(/C=C2/C(C)=C(CC(=O)Nc3ccc(F)cc3)c3cc(F)ccc32)cc(OC)c1O [Compound 054, (Z)-2-(5-fluoro-1-(4-hydroxy-3,5-dimethoxybenzylidene)-2-methyl-1H-inden-3-yl)-N-(4-fluorophenyl)acetamide]	14	16	
5.99 µM	5.62 µM	6.86 µM	5.2 µM	5.1 µM	0.151 µM	CCCS(=O)(=O)Nc1ccc(F)c(C(=O)c2c[nH]c3ncc(-c4ccc(Cl)cc4)cc23)c1F [Vemurafenib]			
8.14 µM	7.64 µM	> 20 µM	> 20 µM	≥ 23.6 µM	0.0758 µM	OCCn1cc(-c2ccc3c(c2)CC/C3=N\O)c(-c2ccncc2)n1 [GDC0879]			
						COc1cc(/C=C2/C(C)=C(CC(=O)Nc3cccc(Br)c3)c3cc(F)ccc32)cc(OC)c1O [Compound 058, (Z)—N-(3-bromophenyl)-2-(5-fluoro-1-(4-hydroxy-3,5-dimethoxybenzylidene)-2-methyl-1H-inden-3-yl)acetamide]	13	16	
						O=C1Nc2ccc(I)cc2/C1=C/c1cc(Br)c(O)c(Br)c1 [GW5074]			IC50 ([1]; 384-well plates): 15.8 µM; IC50 ([2]; 384-well plates): 7.75 µM; IC50 ([3]; 384-well plates): 8.07 µM; IC50 ([4]; 384-well plates): > 20 µM; IC50 ([5]; 384-well plates): 19.1 µM; IC50 ([6]; 384-well plates): 7.1 µM; selectivity with regard to Ras activation [10]: did not show selectivity for cell lines expressing activated Ras
						COc1cc(/C=C2/C(C)=C(CC(=O)Nc3ccc(Cl)cc3)c3cc(F)ccc32)cc(OC)c1O [Compound 055, (Z)—N-(4-chlorophenyl)-2-(5-fluoro-1-(4-hydroxy-3,5-dimethoxybenzylidene)-2-methyl-1H-inden-3-yl)acetamide]	11	13	
						COc1cc(/C=C2/C(C)=C(CC(=O)Nc3ccc(Cl)c(Cl)c3)c3cc(F)ccc32)cc(OC)c1O [Compound 056, (Z)—N-(3,4-dichlorophenyl)-2-(5-fluoro-1-(4-hydroxy-3,5-dimethoxybenzylidene)-2-methyl-1H-inden-3-yl)acetamide]	5	5	
